Here are results for twelve compounds from PubChem BioAssay (NCI).

Molecules are shown by their SMILES.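 Exposure lasted 48 hours, with cells grown in 96-well plates and compounds tested at five concentrations. GI50 = concentration required for 50% inhibition of growth. At the TGI there is no net growth.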

Some test systems named below: TK-10 renal; NCI-H23 lung; KM12 colon; PC-3 prostate; HOP-92 NSCLC; A498 renal; COLO 205 colon; UO-31 renal; BT-549 breast; SW-620 colon.
Common to all, as to assay: DTP human tumour cell line panel, 48 h

As to `Fc1ccc(-c2nn3ccccc3c2-c2ccncc2)cc1`, the GI50 (commonly the concentration giving 50% growth inhibition) is 12 µM in the test on TK-10 renal; more than 25 µM with NCI-H23 lung; more than 25 µM with KM12 colon; more than 25 µM in the test with PC-3 prostate; 4.53 µM with HOP-92 NSCLC; more than 18.3 µM in the test on A498 renal. The GI50 is more than 25 µM with COLO 205 colon, 8.26 µM with UO-31 renal, more than 25 µM in the test on BT-549 breast and more than 25 µM in the test with SW-620 colon. The TGI in the test on TK-10 renal, in the test on NCI-H23 lung, in the test with KM12 colon, in the test on PC-3 prostate, in the test with HOP-92 NSCLC and in the test with A498 renal was more than 25 µM in each case. The TGI with COLO 205 colon, with UO-31 renal, in the test on BT-549 breast and in the test with SW-620 colon was more than 25 µM in each case.

Regarding `Clc1ccc2c(c1)N(C1CCCN(Cc3ccccc3)C1)c1ccccc1S2` (centres undefined), the GI50 in the test on TK-10 renal was 71.8 µM; with NCI-H23 lung it was 9.33 µM; in the test with KM12 colon, 4.73 µM; in the test on PC-3 prostate it was 4.4 µM; in the test on HOP-92 NSCLC, 4.68 µM; in the test with A498 renal, 14.7 µM. In addition, the GI50 is 2.9 µM with COLO 205 colon, 3.12 µM in the test with UO-31 renal, 7.39 µM in the test on BT-549 breast and 2.98 µM in the test on SW-620 colon. The TGI (usually the concentration giving total growth inhibition) is more than 100 µM with TK-10 renal; more than 100 µM in the test on NCI-H23 lung; more than 100 µM with KM12 colon; more than 100 µM in the test with PC-3 prostate; 74.2 µM in the test with HOP-92 NSCLC; more than 100 µM with A498 renal. The TGI was 10.1 µM in the test with COLO 205 colon, more than 100 µM with UO-31 renal, 77 µM in the test with BT-549 breast and 32.5 µM in the test with SW-620 colon.

On to `CCN(CC)CCN1c2nc3ccccc3cc2Sc2cc3ccccc3nc21`, for which the GI50 is 3.54 µM in the test with TK-10 renal; 2.51 µM in the test with NCI-H23 lung; 2.01 µM with KM12 colon; 1.71 µM in the test with PC-3 prostate; 0.869 µM in the test with HOP-92 NSCLC; 3.08 µM in the test on A498 renal. In addition, the GI50 in the test on COLO 205 colon is 1.35 µM; in the test with UO-31 renal, 0.97 µM; with BT-549 breast, 2.83 µM; in the test on SW-620 colon, 1.53 µM. For the same compound, the TGI with TK-10 renal was found to be 8.74 µM; in the test on NCI-H23 lung, 10.6 µM; in the test with KM12 colon, 5 µM; in the test on PC-3 prostate, 4.84 µM; with HOP-92 NSCLC, 3.2 µM; with A498 renal it was 8.62 µM. The TGI in the test with COLO 205 colon amounted to 2.85 µM; in the test with UO-31 renal it was 5.09 µM; in the test with BT-549 breast, 12.2 µM; in the test with SW-620 colon, 2.99 µM.

For the compound `CNC(=O)c1c(F)cccc1Nc1nc(Nc2cc3c(cc2OC)CCN3C(=O)CN(C)C)nc2[nH]ccc12`, the GI50 in the test with TK-10 renal was 4.76 µM; in the test on NCI-H23 lung it was 13.3 µM; with KM12 colon, 2.23 µM; in the test on PC-3 prostate, 6.25 µM; in the test with HOP-92 NSCLC, 0.0309 µM; in the test on A498 renal, more than 39.6 µM. The GI50 in the test with COLO 205 colon was 0.151 µM; in the test with UO-31 renal, 3.85 µM; in the test on BT-549 breast, 19.8 µM; in the test with SW-620 colon, 1.14 µM. For the same compound, the TGI in the test on TK-10 renal is 11.8 µM; with NCI-H23 lung it was 34 µM; with KM12 colon, 4.99 µM; with PC-3 prostate, 39.9 µM; in the test with HOP-92 NSCLC it was 1.6 µM; in the test with A498 renal, more than 58.7 µM. Moreover, the TGI with COLO 205 colon stood at 3.48 µM; in the test with UO-31 renal it was 12.2 µM; in the test on BT-549 breast, 48.2 µM; in the test on SW-620 colon, 3.42 µM.

`CC(=O)Nc1ccc(S(=O)(=O)N=S(C)C)cc1`: the TGI with TK-10 renal, in the test on NCI-H23 lung, in the test with KM12 colon, with PC-3 prostate, with HOP-92 NSCLC and in the test on A498 renal was more than 100 µM each time. Further, the total growth inhibition concentration (TGI) in the test with COLO 205 colon, with UO-31 renal, with BT-549 breast and with SW-620 colon was more than 100 µM each time.

With `COC1C=COC2(C)Oc3c(C)c(O)c4c(O)c(c(C5SCCS5)c(O)c4c3C2=O)NC(=O)/C(C)=C\C=CC(C)C(O)C(C)C(O)C(C)C(OC(C)=O)C1C` (centres undefined), the TGI in the test on TK-10 renal stood at 14.2 µM; with NCI-H23 lung it was 18.4 µM; in the test on KM12 colon, 30.6 µM; in the test on PC-3 prostate, 20 µM; in the test on HOP-92 NSCLC, 26.1 µM; in the test on A498 renal, 26.5 µM. For the same compound, the concentration for total growth inhibition (TGI) turned out to be 6.79 µM in the test on COLO 205 colon, 26.7 µM in the test on UO-31 renal, 16.2 µM with BT-549 breast and 20.1 µM in the test on SW-620 colon.

Consider `COS(C)(=O)=O`, for which the TGI in the test with TK-10 renal, with NCI-H23 lung, in the test on KM12 colon, in the test on PC-3 prostate, with HOP-92 NSCLC and in the test with A498 renal was more than 2 µM each time. Also, the TGI in the test with COLO 205 colon, in the test with UO-31 renal, in the test on BT-549 breast and in the test on SW-620 colon was more than 2 µM throughout.

In the case of `O=C(c1ccc([N+](=O)[O-])cc1)C(Br)C(Br)c1ccnc2ccccc12` (centres undefined), the TGI in the test on TK-10 renal is 12.6 µM; in the test with NCI-H23 lung, more than 21.9 µM; in the test with KM12 colon, 5.13 µM; in the test with PC-3 prostate, 21.1 µM; in the test on HOP-92 NSCLC, 28.8 µM; with A498 renal, 25.7 µM. For the same compound, the total growth inhibition concentration (TGI) in the test with COLO 205 colon is 28.9 µM; in the test with UO-31 renal, 3.58 µM; in the test with BT-549 breast, 20 µM; with SW-620 colon it was 5.61 µM.

With `COc1ccc2c(O)c(/C=C3\N=Nc4ncccc43)oc2c1C[C@@H]1CCNC[C@H]1F`, the GI50 in the test on TK-10 renal was 2.11 µM; in the test on NCI-H23 lung it was 0.861 µM; with KM12 colon it was 0.314 µM; in the test with PC-3 prostate, 0.53 µM; in the test on HOP-92 NSCLC, 4.7 µM; in the test on A498 renal, 1.39 µM. The GI50 is 0.323 µM in the test with COLO 205 colon, 1.61 µM in the test on UO-31 renal and 0.34 µM with SW-620 colon. The TGI came to 5.91 µM with TK-10 renal; 3.51 µM in the test on NCI-H23 lung; 1.4 µM in the test with KM12 colon; 3.62 µM in the test with PC-3 prostate; 9.21 µM in the test with HOP-92 NSCLC; 3.66 µM in the test on A498 renal. Further, the TGI with COLO 205 colon worked out at 1.43 µM; in the test with UO-31 renal it was 5.18 µM; in the test on BT-549 breast, 2.53 µM; in the test on SW-620 colon it was 1.12 µM.

Take `C#C[C@@]1(O)[C@@H](CO)O[C@@H](n2cc(C(F)(F)F)c3c(N)ncnc32)[C@@H]1O`: the GI50 in the test with TK-10 renal was 0.966 µM; in the test on NCI-H23 lung, 0.651 µM; in the test with KM12 colon, 0.365 µM; in the test on PC-3 prostate, 0.427 µM; in the test on HOP-92 NSCLC, 1.24 µM; with A498 renal, 0.168 µM. In addition, the concentration for 50% growth inhibition (GI50) with COLO 205 colon is 0.255 µM; with UO-31 renal, 0.311 µM; in the test with BT-549 breast, 0.962 µM; with SW-620 colon, 0.349 µM. Besides, the TGI was more than 28.2 µM in the test with TK-10 renal; 8.19 µM with NCI-H23 lung; more than 30.4 µM in the test with KM12 colon; more than 21.1 µM in the test with PC-3 prostate; 7.46 µM with HOP-92 NSCLC; 0.533 µM in the test with A498 renal. The TGI in the test with COLO 205 colon is 1.27 µM; in the test on UO-31 renal, 3.16 µM; in the test with BT-549 breast, 4.69 µM; in the test with SW-620 colon it was more than 21.7 µM.

Take `COc1ccc(C2C(C#N)=C(N)Oc3c2sc2c(Br)cccc32)cc1` (centres undefined): the GI50 was 8.48 µM in the test on TK-10 renal; 2.64 µM in the test with NCI-H23 lung; 1.92 µM with KM12 colon; 2.86 µM in the test with PC-3 prostate; 8.88 µM with HOP-92 NSCLC; 1.37 µM in the test on A498 renal. Further, the GI50 in the test with COLO 205 colon is 2.23 µM; in the test with UO-31 renal it was 3.21 µM; in the test with BT-549 breast, 4.76 µM; with SW-620 colon it was 1.87 µM. Also, the TGI is 22.2 µM with TK-10 renal; 14.2 µM with NCI-H23 lung; 14 µM in the test on KM12 colon; 17.3 µM in the test with PC-3 prostate; 26.4 µM with HOP-92 NSCLC; 13.9 µM with A498 renal. Besides, the TGI came out at 5.39 µM in the test on COLO 205 colon, 17.7 µM with UO-31 renal, 25.3 µM in the test on BT-549 breast and 86.6 µM in the test with SW-620 colon.

For `COc1cc(-c2nc3ccccc3o2)cc(CN2CCCCC2)c1O`, the GI50 with TK-10 renal was 31.2 µM; in the test on NCI-H23 lung, 1.54 µM; in the test on KM12 colon, 2.39 µM; with PC-3 prostate it was 0.664 µM; with HOP-92 NSCLC it was 27 µM; in the test on A498 renal it was 10 µM. Moreover, the GI50 in the test with COLO 205 colon was 2.38 µM; in the test on UO-31 renal it was 1.92 µM; in the test on BT-549 breast, 2.45 µM; with SW-620 colon, 1.92 µM. In addition, the TGI in the test on TK-10 renal is more than 85.8 µM; in the test on NCI-H23 lung it was 5.26 µM; in the test with KM12 colon, 16.6 µM; with PC-3 prostate it was more than 100 µM; in the test on HOP-92 NSCLC, more than 100 µM; in the test with A498 renal, 24.5 µM. The TGI in the test on COLO 205 colon was 4.6 µM; with UO-31 renal, 21.8 µM; in the test on BT-549 breast, 9.16 µM; in the test on SW-620 colon, 8.13 µM.
